Type in all cases: cell-based, Choristoneura fumiferana
The subject of data set [1] is GAL4:CfEcR-DEF/VP16:LmUSP-EF. The data set can be described thus: Luciferase reporter gene induction in stably transfected CHO cells (pFRLuc). The settings on record: stable clone 1A2, CHO cells, 0, 1, 5, or 25 μM ligand, 48 hours, maximum fold induction. The source says: This Example describes the construction of host cells comprising the EcR/invertebrate RXR-based gene expression modulation system according to the invention. To make stable cells expressing GAL4:CfEcR-DEF/VP16:LmUSP-EF (switch 1.18, prepared as described in Example 1), Applicants transfected the gene expression cassettes encoding the hybrid GAL4:CfEcR-DEF and VP16:LmUSP-EF polypeptides into Chinese hamster ovary CHO cells comprising a stably transfected reporter plasmid pFRLuc. […] The cells were harvested and reporter activity was assayed.
The transfected CHO cells were grown in the presence of 0, 1, 5, or 25 μM PonA steroid ligand or GS™-E non-steroid ligand for 48 hours. The cells were harvested, lysed and the reporter activity was measured. Total fly luciferase relative light units (RLU) are presented. The numbers on the top of the bars correspond to the maximum fold induction for each treatment. Bulk populations of cells were selected for resistance to the antibiotic neomycin (VP16:LmUSP/VP16:RXR constructs have the neomycin resistance gene incorporated). Several clones from each population were isolated by end point dilution. Three clones of stably transfected GAL4:CfEcR-DEF/VP16:LmUSP-EF cells were analyzed (see FIG. 10, clone 1A2; the data related to the two other clones are not shown).
A general note: In a reporter assay the amount or activity of a reporter protein is the signal.

Data set [2] deals with GAL4CfEcR-DEF/VP16LmUSP-EF (switch 1.18). In words: Effect of a second ligand on transactivation of the gene switch with pFRLuc in NIH3T3 cells. The following applies: non-steroid ligand 1 μM or less, absence of 9-Cis-retinoic acid, 48 hours. On the procedure: (§1) Transfections: DNAs corresponding to the various switch constructs outlined in Example 1, specifically switches 1.1 through 1.8, were transfected into mouse NIH3T3 cells (ATCC) as follows. […] For 12-well plates, 4 μl of Superfect™ was mixed with 100 μl of growth medium. […] The cells were harvested and reporter activity was assayed. […] Ligands: The steroidal ligand Ponasterone A (PonA) was purchased from Sigma Chemical Company. […] Reporter Assays: Cells were harvested 48 hours after adding ligands. […] Twenty μl of lysate were assayed. […] In addition, LmUSP worked better than vertebrate RXR as a CfEcR partner. In particular, both the sensitivity, i.e. the concentration of ligand required for transactivation, and the magnitude of transactivation were increased with LmUSP compared to vertebrate RXR. […]
In particular, Applicants have determined the effect of 9-cis-retinoic acid on the transactivation potential of the GAL4CfEcR-DEF/VP16LmUSP-EF (switch 1.18) gene switch along with pFRLuc in NIH3T3 cells in the presence of non-steroid (GSE) for 48 hours.
Briefly, GAL4CfEcR-DEF, pFRLuc and VP16LmUSP-EF were transfected into NIH3T3 cells and the transfected cells were treated with 0, 0.04, 0.2, 1, 5 and 25 μM non-steroidal ligand (GSE) and 0, 1, 5 and 25 μM 9-Cis-retinoic acid (Sigma Chemical Company). The reporter activity was measured at 48 hours after adding ligands.

The next data set has as its system CfEcR/LmUSP-based switch. In words: Luciferase reporter induction by two-hybrid switches transfected into NIH3T3 cells. The following applies: non-steroid compared with steroid PonA, 0, 1, 5 or 25 μM, 48 hours. The protocol: as §1
Briefly, full-length EcR and truncated EcRs, created by a truncation mutation at the junctions of A/B, C, D, E and F domains and fused to a GAL4 DNA binding domain encoding polynucleotide (SEQ ID NO: 33) as described in Example 1 above. […] The cells were harvested, lysed and luciferase reporter activity was measured in the cell lysates. […] The analysis was performed in triplicate and mean luciferase counts [total relative light units (RLU)] were determined as described above.

Structures are written as SMILES.

Consider `CCc1c(OC)cccc1C(=O)NN(C(=O)c1cc(C)cc(C)c1)C(C)(C)C` [non-steroidal ligand, N-(2-ethyl-3-methoxybenzoyl)-N′-(3,5-dimethylbenzoyl)-N′-t-butylhydrazine], for which the fold induction (commonly the signal under treatment as a multiple of the control signal) in data set [1] came to 162 fold. Besides, the “induction of reporter activity” value in data set [2] was “very little induction”. Also, the “sensitivity of the switch to ligand” value in the data set with CfEcR/LmUSP-based switch is given as “more sensitive”.

In the case of `CC(C)CC[C@@H](O)[C@](C)(O)[C@H]1CC[C@@]2(O)C3=CC(=O)[C@@H]4C[C@@H](O)[C@@H](O)C[C@]4(C)[C@H]3CC[C@]12C` [PonA, Ponasterone A], the fold induction in data set [1] amounted to 42 fold.

These data come from patent US9493540B2, “Ecdysone receptor/invertebrate retinoid X receptor-based inducible gene expression system” (Intrexon Corporation, priority 2001, dated 2016).
